pKi: −log10 of the molar value. Where “and” joins values, the source holds several entries; their conditions need not be identical. Identical values can stand only once. Like-named read-outs stand apart in the source and are kept apart here.
Columns and labels:
HIV-1 protease [1] = target: T1, HIV-1 protease (Human immunodeficiency virus type 1 group M subtype B, UniProt P04585); assay: biochemical
Summary of the method: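 Percent inhibition came from fluorescence of FITC-tagged cleavage product, separated by filtration from uncleaved substrate captured on streptavidin-coated beads. The enzyme (10 μl of 0.1 μM) and compound acted on a biotin/FITC dual-labelled peptide for one hour at room temperature in the dark. The reaction ran in 0.1 M sodium acetate, pH 5.5, with 1.0 M NaCl and 0.05% NP-40.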

HIV-1 protease [2] = target: T1, HIV-1 protease; assay: biochemical; remark: listed apart in the source
Summary of the method: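 Biotinylated, FITC-labelled peptide substrate cleaved in 0.1 M sodium acetate pH 5.5, 1.0 M NaCl, 0.05% NP-40, room temperature. Filtered labelled product read by fluorescence; nonlinear least-squares fit.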

[3] = Table I, Dose 0.123 μM, read-out: Protease % Inhib
[4] = Table I, Dose 0.370 μM, read-out: Protease % Inhib
[5] = Table I, Dose 1.100 μM, read-out: Protease % Inhib
[6] = Table I, Dose 3.300 μM, read-out: Protease % Inhib
[7] = Table I, Dose 10.000 μM, read-out: Protease % Inhib
[8] = Table I, Dose 30.000 μM, read-out: Protease % Inhib
[9] = Table I, read-out: HIV Protease FITC Assay Ki

SMILES	inhibition at 0.123 µM (HIV-1 protease [1]; [3]) [%]	inhibition at 0.37 µM (HIV-1 protease [1]; [4]) [%]	inhibition at 1.1 µM (HIV-1 protease [1]; [5]) [%]	inhibition at 3.3 µM (HIV-1 protease [1]; [6]) [%]	inhibition at 10 µM (HIV-1 protease [1]; [7]) [%]	inhibition at 30 µM (HIV-1 protease [1]; [8]) [%]	pKi (HIV-1 protease [2]; [9])	other results
O=c1oc(C(CC2CC2)CC2CC2)cc(O)c1C(c1cccc(NS(=O)(=O)c2ncc[nH]2)c1)C1CC1 (centres unmarked) [Example 102, N-(3-{Cyclopropyl-[6-(2-cyclopropyl-1-cyclopropylmethyl-ethyl)-4-hydroxy-2-oxo-2H-pyran-3-yl]-methyl}-phenyl)-1H-imidazole-2-sulfonamide]	87.1	92.7	102	110	117	108	9.15	–
COCCOCCOCCOc1ccc2c(O)c(C(c3cccc(NS(=O)(=O)c4ccccn4)c3)C3CC3)c(=O)oc2c1 (centres unmarked) [Example 154, N-(3-{Cyclopropyl-[7-(2-(2-(2-methoxyethoxy)-ethoxy)ethoxy)-4-hydroxycoumarin-3-yl]-methyl}-phenyl)-2-pyridinesulfonamide]	–	–	–	–	–	–	–	inhibition at 0.123 µM (HIV-1 protease [1]; read-out: Protease % Inhib): 99.8%; inhibition at 0.37 µM (HIV-1 protease [1]; read-out: Protease % Inhib): 98.2%; inhibition at 1.1 µM (HIV-1 protease [1]; read-out: Protease % Inhib): 99.5%; inhibition at 3.3 µM (HIV-1 protease [1]; read-out: Protease % Inhib): 97.6%; inhibition at 10 µM (HIV-1 protease [1]; read-out: Protease % Inhib): 104%; inhibition at 30 µM (HIV-1 protease [1]; read-out: Protease % Inhib): 99.2%; pKi (HIV-1 protease [2]; HIV Protease FITC Assay Ki): 9.66
CC[C@@H](Cc1ccccc1)c1cc(O)c(C(c2cccc(NS(=O)(=O)c3cn(C)cn3)c2)C2CC2)c(=O)o1 (single isomer, unassigned) [Example 140, N-(3-(R or S)-{Cyclopropyl-[6-(1-(S)-ethylphenethyl)-4-hydroxy-2-oxo-2H-pyran-3-yl]-methyl}-phenyl)-1-methyl-1H-imidazole-4-sulfonamide]	–	–	–	–	–	–	8.84	PROTEASE % INHIB. (HIV-1 protease [1]; Table I, Dose 0.123 μM): 103.22%; PROTEASE % INHIB. (HIV-1 protease [1]; Table I, Dose 0.370 μM): 96.01%; PROTEASE % INHIB. (HIV-1 protease [1]; Table I, Dose 1.100 μM): 107.37%; PROTEASE % INHIB. (HIV-1 protease [1]; Table I, Dose 3.300 μM): 112.51%; PROTEASE % INHIB. (HIV-1 protease [1]; Table I, Dose 10.000 μM): 112.53%; PROTEASE % INHIB. (HIV-1 protease [1]; Table I, Dose 30.000 μM): 119.14%
CCC(C1=C(O)CC(CC(C)C)(CC(C)C)OC1=O)c1cccc(NS(=O)(=O)c2cn(C)cn2)c1 (centres unmarked) [Example 47, N-[3-[1-(4-hydroxy-6,6-diisobutyl-2-oxo-5,6-dihydro-2H-pyran-3-yl)-propyl]-phenyl]-1-methyl-1H-imidazole-4-sulfonamide]	66.3	–	94.7	101	98.7	84.5	8.52 and 8.53	inhibition at 0.87 µM (HIV-1 protease [1]; Table I, Dose 0.870 μM, read-out: Protease % Inhib): 86.8%
CCC(CC1CCOCC1)c1cc(O)c(C(c2cccc(NS(=O)(=O)c3nccn3C)c2)C2CC2)c(=O)o1 (centres unmarked) [Example 145, N-(3-{Cyclopropyl-[6-(1-(tetrahydropyran-4-ylmethyl)-propyl)-4-hydroxy-2-oxo-2H-pyran-3-yl]-methyl}-phenyl)-1-methyl-1H-imidazole-2-sulfonamide]	73.6	89.8	99.7	94.8	96.8	88	9.31	–
CCCC1(CCc2ccc(F)cc2)CC(O)=C(C(c2cccc(NS(=O)(=O)c3ccc(C#N)cc3)c2)C(C)(C)C)C(=O)O1 (centres unmarked) [Example 328, N-[3-{1-(4-Hydroxy-5,6-dihydro-2-oxo-6-(2-(4-fluorophenyl)ethyl)-6-propyl-2H-pyran-3-yl)-2,2-dimethylpropyl}phenyl]-4-cyanobenzenesulfonamide]	–	–	–	–	–	–	–	PROTEASE % INHIB. (HIV-1 protease [1]; Table II, enzyme HIV-1, DOSE 0.123 (unit not given)): 27.81%; PROTEASE % INHIB. (HIV-1 protease [1]; Table II, enzyme HIV-1, DOSE 0.370 (unit not given)): 79.47%; PROTEASE % INHIB. (HIV-1 protease [1]; Table II, enzyme HIV-1, DOSE 1.100 (unit not given)): 95.45%; PROTEASE % INHIB. (HIV-1 protease [1]; Table II, enzyme HIV-1, DOSE 3.300 (unit not given)): 96.77%; PROTEASE % INHIB. (HIV-1 protease [1]; Table II, enzyme HIV-1, DOSE 10.000 (unit not given)): 96.78%; PROTEASE % INHIB. (HIV-1 protease [1]; Table II, enzyme HIV-1, DOSE 30.000 (unit not given)): 92.17%; pKi (HIV-1 protease [2]; Table II, enzyme HIV-1, read-out: FITC KI): 7.66
CCC(CCNS(=O)(=O)c1cn(C)cn1)c1cc(O)c(C(c2cccc(NS(=O)(=O)c3cn(C)cn3)c2)C2CC2)c(=O)o1 (centres unmarked) [Example 107, N-(3-{Cyclopropyl-[6-(1-ethyl-3-{1-methyl-1H-imidazole-4-sulfonylamino}-propyl)-4-hydroxy-2-oxo-2H-pyran-3-yl]-methyl}-phenyl)-1-methyl-1H-imidazole-4-sulfonamide]	92.7	99.2	105	103	110	103	9.05 and 9.15	–
CCCC1(CCC)CC(O)=C(C(CC)c2cccc(NS(=O)(=O)c3cccc4cccnc34)c2)C(=O)O1 (centres unmarked) [Example 43, N-[3-[1-(4-hydroxy-2-oxo-6,6-dipropyl-5,6-dihydro-2H-pyran-3-yl)-propyl]-phenyl]-8-quinolinesulfonamide]	85.6	99	95.7	96.7	102	85.6	8.44	–
Cn1cnc(S(=O)(=O)Nc2cccc(C(C3=C(O)CC(CCc4ccccc4)(CCc4ccccc4)OC3=O)C3CC3)c2)c1 (centres unmarked) [Example 62]	76.2	85.2	85.3	78.7	79.7	79.4	9.10	–
CCCC1(CCc2ccc(F)cc2)CC(O)=C(C(c2cccc(NS(=O)(=O)c3cn(C)cn3)c2)C(C)(C)C)C(=O)O1 (centres unmarked) [Example 252, N-[3-{1-(4-Hydroxy-5,6-dihydro-2-oxo-6-(2-(4-fluorophenyl)ethyl)-6-propyl-2H-pyran-3-yl)-2,2-dimethylpropyl}phenyl]-1-methyl-1H-imidazole-4-sulfonamide]	70	85	89.7	101	96.2	91.4	8.80	–
CCCC1(CCC)CC(O)=C(C(c2cccc(NS(=O)(=O)c3cccc4cccnc34)c2)C2CC2)C(=O)O1 (centres unmarked) [Example 49]	111	120	120	106	108	112	9.02	–
CCCC1(CCC)CC(O)=C(C(CC)c2cccc(NS(=O)(=O)c3ccc(C#N)cc3)c2)C(=O)O1 (centres unmarked) [Example 46, 4-Cyano-N-[3-[1-(4-hydroxy-2-oxo-6,6-dipropyl-5,6-dihydro-2H-pyran-3-yl)-propyl]-phenyl]-benzenesulfonamide]	85.9	99.2	103	97.6	91.5	74.1	8.53	–
O=c1oc(C(CC2CC2)CC2CC2)cc(O)c1C(c1cccc(NS(=O)(=O)c2ccc(F)cc2)c1)C1CC1 (centres unmarked) [Example 94, N-(3-{Cyclopropyl-[6-(2-cyclopropyl-1-cyclopropylmethyl-ethyl)-4-hydroxy-2-oxo-2H-pyran-3-yl]-methyl}-phenyl)-4-fluoro-benzenesulfonamide]	–	–	–	–	–	–	–	inhibition at 0.123 µM (HIV-1 protease [1]; read-out: Protease % Inhib): 75.8%; inhibition at 0.37 µM (HIV-1 protease [1]; read-out: Protease % Inhib): 107%; inhibition at 1.1 µM (HIV-1 protease [1]; read-out: Protease % Inhib): 107%; inhibition at 3.3 µM (HIV-1 protease [1]; read-out: Protease % Inhib): 105%; inhibition at 10 µM (HIV-1 protease [1]; read-out: Protease % Inhib): 109%; inhibition at 30 µM (HIV-1 protease [1]; read-out: Protease % Inhib): 111%; pKi (HIV-1 protease [2]; read-out: HIV Protease FITC Assay Ki): 7.79
CCCC1(CCC)CC(O)=C(C(CC)c2cccc(NS(=O)(=O)c3cn(C)cn3)c2)C(=O)O1 (single isomer, unassigned) [Example 53, (R or S)-N-[3-[1-(4-hydroxy-2-oxo-6,6-dipropyl-5,6-dihydro-2H-pyran-3-yl)-propyl]-phenyl]-1-methyl-1H-imidazole-4-sulfonamide]	–	–	–	99.6	90.2	84.4	9.05	PROTEASE % INHIB. (HIV-1 protease [1]; Table I, Dose 0.123 μM): 88.61%; PROTEASE % INHIB. (HIV-1 protease [1]; Table I, Dose 0.370 μM): 97.74%; PROTEASE % INHIB. (HIV-1 protease [1]; Table I, Dose 1.100 μM): 97.95%

— patent publication US6169181A, “Compounds useful to treat retroviral infections” (Pharmacia & Upjohn Company, priority 1998, dated 2001)
